Results as given in publication PMC9920986 (Molecules, 2023).
Where two headings read alike, the source gives them in different places.

Columns and labels:
NQO2 = settings: cited from earlier work; for IC50: Figure 1
[1] = target: T1, human recombinant NRH:quinone oxidoreductase (NQO2) (Homo sapiens, UniProt P16083); test: biochemical; settings: for inhibition at 10 µM: read-out: NQO2 Inhibition, %
T1 construct: purchased Sigma Q0380
T1 sequence (P16083 1-231): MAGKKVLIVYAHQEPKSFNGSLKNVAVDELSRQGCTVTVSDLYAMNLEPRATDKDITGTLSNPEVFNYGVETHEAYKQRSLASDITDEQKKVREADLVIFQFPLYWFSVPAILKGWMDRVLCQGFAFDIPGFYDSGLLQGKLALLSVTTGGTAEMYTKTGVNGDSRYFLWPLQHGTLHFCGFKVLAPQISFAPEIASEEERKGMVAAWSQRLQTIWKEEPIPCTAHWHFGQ
Description: The inhibition activity of all synthesized compounds at a concentration of 10 µM was preliminarily tested in vitro using human recombinant NRH:quinone oxidoreductase (NQO2).
The activity of recombinant human NQO2 (Sigma #Q0380, St. Louis, […], USA) was evaluated kinetically using menadione and N-benzyl-dihydronicotinamide (BNAH) as the substrate and co-substrate, respectively. All reagents and test compounds were dissolved in 50 mM Hepes-KOH (pH 7.4) containing 1 mM of β-octyl-D-glucopyranoside, 0.1 mg/mL BSA and 1 μM FAD. […] The solutions of the test compounds were pre-incubated for 5 min with 50 μL of human recombinant NQO2 (final concentration 42 ng/mL). Then, 25 μL of menadione was introduced at a final concentration of 100 μM. The reaction was started with 25 μL of 100 μM BNAH. The fluorescence of the co-substrate BNAH was followed at wavelengths of 370/440 nm at 37 °C using an Infinite M200 Pro microplate reader (Tecan, Grödig, Austria). The fluorescence data was fit according to a one-phase decay nonlinear regression to obtain slope values with Prism 8.0 (GraphPad Inc., San Diego, CA, USA). The activity in sample wells were normalized against negative control and enzyme-blank samples.

A549 cell line = test: Antiproliferative assay (MTT colorimetric test, 72 h); type: cell-based; settings: n.a. = not active
From the text: (§1) The cytotoxicity of the synthesized oxindoles was studied using the A549 cell line in which the levels of NQO2 are increased (Table 4). […] The cytotoxicity of the compounds may be due to the inhibition of other enzymes associated with the activation of apoptosis in cancer cells, for example GSK3b or tyrosine kinases, or with the general non-specific toxicity of these compounds. Thus, the influence of NQO2 on A549 cell viability has not been established.
(§2) The A549 cells were maintained in F12-K (Gibco, Paisley, UK) supplemented with 10% fetal bovine serum (FBS, Gibco, UK), penicillin (100 UI mL^−1), streptomycin (100 µg mL^−1) and GlutaMax (2 mM, Gibco, UK). All cells line were cultured under a humidified atmosphere of 95% air/5% CO2 at 37 °C. Subconfluent monolayers, in the log growth phase, were harvested by a brief treatment with TrypLE Express solution (Gibco, UK) in phosphate-buffered saline (PBS, Capricorn Scientific, Ebsdorfergrund, Germany) and washed three times in serum-free PBS. The number of viable cells was determined by trypan blue exclusion.
(§3) The effects of the synthesized compounds on cell viability were determined using the MTT colorimetric test. All examined cells were diluted with the growth medium to 3.5 × 10^4 cells per mL and the aliquots (7 × 10^3 cells per 200 μL) were placed in individual wells in 96-multiplates (Eppendorf, Germany) and incubated for 24 h. […] After incubation, the cells were then treated with 40 μL MTT solution (3-(4,5-dimethylthiazol-2-yl)-2,5-diphenyltetrazolium bromide, 5 mg mL^−1 in PBS) and incubated for 4 h. After an additional 4 h incubation, the medium with MTT was removed and DMSO (150 μL) was added to dissolve the formazan crystals. The plates were shaken for 10 min. The optical density of each well was determined at 560 nm using a microplate reader GloMax Multi+ (Promega, Madison, WI, USA). Each of the tested compounds was evaluated for cytotoxicity in three separate experiments.

[2] = as above; type: cell-based; settings: human, n.a. = not active, read-out: A549, CC50
From the text: as §1, §2, §3

[3] = recombinant human NQO2, 100 μM menadione, 100 μM BNAH, read-out: NQO2 IC50 ± SEM

Molecule	IC50 [1, 3] [nM]	CC50 at 72 h [2] [µM]	other results
COC(=O)Nc1ccc2[nH]cc(CCNC(C)=O)c2c1 [MCA-NAT]			IC50 (NQO2): 0.037 µM
(E,Z)-3-(4-Fluorobenzylidene)-2-oxindole [Compound 33]	> 50000		NQO2 Inhibition, % ([1]; inhibition at 10 µM concentration): 19.46%; CC50 (A549 cell line): 38.6 ± 10.4 µM
COc1ccc2[nH]cc(CCNC(C)=O)c2c1 [Melatonin]			IC50 (NQO2): 6 µM; NQO2 inhibition concentration range (NQO2): ~50 µM
O=C1Nc2ccc(Br)cc2C1=Cc1cccnc1 [Compound 8, 5-bromo-3-(3-pyridinylmethylidene)-2-oxindole]		22.3 ± 1.42	inhibition at 10 µM [1]: 44.2%
COc1cc(C=C2C(=O)Nc3ccc(NC(=O)c4ccco4)cc32)cc(OC)c1OC [Compound 25, 3-(3,4,5-trimethoxybenzylidene)-5-furoylamino-2-oxindole]		201 ± 22.7	IC50 [1]: 660 ± 20 nM
O=C1Nc2ccccc2C1=Cc1ccc(O)cc1 [Compound 14, 3-(4-hydroxybenzylidene)-2-oxindole]		80.9 ± 12.2	IC50 [1]: > 50000 nM
COc1ccc(C=C2C(=O)Nc3ccccc32)cc1 [Compound 20, 3-((4-methoxyphenyl)methylene)-2-oxindole]		54.8	inhibition at 10 µM [1]: 40.8%
O=C1Nc2ccc(NC(=O)c3ccco3)cc2C1=Cc1ccc(O)cc1 [Compound 18, 3-(4-hydroxybenzylidene)-5-furoylamino-2-oxindole]	370 ± 20	146 ± 11.3	
O=C1Nc2ccc(NC(=O)c3ccccc3)cc2C1=Cc1ccccn1 [Compound 6, (E,Z)-3-(2-Pyridinylmethylidene)-5-benzoylamino-2-oxindole]		17.4 ± 1.8	inhibition at 10 µM [1]: 43.1%
O=C1Nc2ccc(Br)cc2C1=Cc1ccc(Br)cc1 (mixture of isomers) [Compound 31, 3-(4-bromobenzylidene)-5-bromo-2-oxindole]		242 ± 3.19	inhibition at 10 µM [1]: 68.6%
CC(=O)Nc1ccc2c(c1)C(=Cc1cccc(O)c1)C(=O)N2 [Compound 13, 3-(3-hydroxybenzylidene)-5-acetylamino-2-oxindole]		176 ± 4.76	IC50 [1]: 640 ± 40 nM
O=C1Nc2ccccc2C1=Cc1ccncc1 [Compound 10, 3-(4-pyridinylmethylidene)-2-oxindole]	> 50000	80.3 ± 9.87	
O=C1Nc2ccc(Br)cc2C1=Cc1ccccn1 [Compound 3, 5-bromo-3-(2-pyridinylmethylidene)-2-oxindole]	> 50000	90.6 ± 1.5	
COC(=O)Nc1ccc2c(c1)C(=Cc1ccc(O)cc1)C(=O)N2 [Compound 17, 3-(4-hydroxybenzylidene)-5-(methoxycarbonylamino)-2-oxindole]	440 ± 20	44.43 ± 0.29	
Cc1ccc(C(=O)CC2(O)C(=O)Nc3ccccc32)cc1 (centres unmarked) [Compound 52, 3-hydroxy-3-[2-(4-methylphenyl)-2-oxoethyl]-2-oxindole]	> 50000	171 ± 13.4	
O=C1Nc2ccc(Br)cc2C1=Cc1cccs1 [Compound 38, 5-bromo-3-(2-thienylmethylidene)-2-oxindole]		427 ± 6.2	IC50 [1]: > 50000 nM
